Measurements: ChEMBL document CHEMBL1201862, “PubChem BioAssay data set” (2004)
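Method: 48-hour compound exposure of cells in 96-well plates, five concentrations, linear interpolation of endpoints. At the GI50, growth is halved.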 Active and inactive are the calls of the source. No stated cut-off is given here; in the data, active = GI50 up to about 1.1 µM and inactive = higher.

How the values were obtained:
Test in all cases: NCI tumour cell line growth inhibition, 48 h
OVCAR-5 = system: OVCAR-5
SK-MEL-28 = system: SK-MEL-28
SW-620 = system: SW-620
UO-31 = system: UO-31
DU-145 = system: DU-145
MDA-MB-435 = system: MDA-MB-435
COLO 205 = system: COLO 205
MCF7 = system: MCF7
IGROV-1 = system: IGROV-1
CCRF-CEM = system: CCRF-CEM
RPMI-8226 = system: RPMI-8226
MDA-N = system: MDA-N
MDA-MB-231 = system: MDA-MB-231
CAKI-1 = system: CAKI-1
NCI-H226 = system: NCI-H226
KM12 = system: KM12
K562 = system: K562
PC-3 = system: PC-3
NCI/ADR-RES = system: NCI/ADR-RES
SNB-19 = system: SNB-19
LOX IMVI = system: LOX IMVI
SK-MEL-2 = system: SK-MEL-2
OVCAR-4 = system: OVCAR-4
A549 = system: A549
SF-295 = system: SF-295
U-251 = system: U-251
HOP-92 = system: HOP-92
HCC 2998 = system: HCC 2998
UACC-257 = system: UACC-257
HOP-62 = system: HOP-62
ACHN = system: ACHN
SNB-75 = system: SNB-75
OVCAR-3 = system: OVCAR-3
SR = system: SR
OVCAR-8 = system: OVCAR-8
UACC-62 = system: UACC-62
HT-29 = system: HT-29
A498 = system: A498
SK-MEL-5 = system: SK-MEL-5
TK-10 = system: TK-10
MOLT-4 = system: MOLT-4
RXF 393 = system: RXF 393
Hs-578T = system: Hs-578T
NCI-H460 = system: NCI-H460
M14 = system: M14
NCI-H23 = system: NCI-H23
T47D = system: T47D
SF-268 = system: SF-268
SF-539 = system: SF-539
HCT-15 = system: HCT-15
Malme-3M = system: Malme-3M
EKVX = system: EKVX
SK-OV-3 = system: SK-OV-3
HL-60 = system: HL-60
786-0 = system: 786-0
NCI-H522 = system: NCI-H522
HCT-116 = system: HCT-116
SN12C = system: SN12C

For `CN(C)c1ccc(/C=C2\C[C@H]3[C@@H]4CCc5cc(O)ccc5[C@H]4CC[C@]3(C)C2=O)cc1`, the GI50 (OVCAR-5) was > 100 µM (inactive), the GI50 (SK-MEL-28) was > 100 µM (inactive) and the GI50 (SW-620) was > 100 µM (inactive). For the same molecule, the GI50 (UO-31) was > 100 µM (inactive), the GI50 (DU-145) was > 100 µM (inactive) and the GI50 (MDA-MB-435) was > 100 µM (inactive). The GI50 (COLO 205) was 64.7 µM (inactive), the GI50 (MCF7) was > 100 µM (inactive) and the GI50 (IGROV-1) was 48 µM (inactive). For the same molecule, the GI50 (CCRF-CEM) was > 100 µM (inactive), the GI50 (RPMI-8226) was > 100 µM (inactive) and the GI50 (MDA-N) was > 100 µM (inactive). For the same molecule, the GI50 (MDA-MB-231) was 16.5 µM (inactive), the GI50 (CAKI-1) was > 100 µM (inactive) and the GI50 (NCI-H226) was 25.1 µM (inactive). For the same molecule, the GI50 (KM12) was > 100 µM (inactive), the GI50 (K562) was > 100 µM (inactive) and the GI50 (PC-3) was > 100 µM (inactive). For the same molecule, the GI50 (NCI/ADR-RES) was > 100 µM (inactive), the GI50 (SNB-19) was > 100 µM (inactive) and the GI50 (LOX IMVI) was > 100 µM (inactive). For the same molecule, the GI50 (SK-MEL-2) was 35.6 µM (inactive), the GI50 (OVCAR-4) was > 100 µM (inactive) and the GI50 (A549) was > 100 µM (inactive). The GI50 (SF-295) was 32.6 µM (inactive), the GI50 (U-251) was 36 µM (inactive) and the GI50 (HOP-92) was 61.5 µM (inactive). For the same molecule, the GI50 (HCC 2998) was > 100 µM (inactive), the GI50 (UACC-257) was > 100 µM (inactive) and the GI50 (HOP-62) was 30.5 µM (inactive). The GI50 (ACHN) was 56.1 µM (inactive), the GI50 (SNB-75) was 28.9 µM (inactive) and the GI50 (OVCAR-3) was > 100 µM (inactive). For the same molecule, the GI50 (SR) was > 100 µM (inactive), the GI50 (OVCAR-8) was 95.1 µM (inactive) and the GI50 (UACC-62) was 17.1 µM (inactive). For the same molecule, the GI50 (HT-29) was 38.3 µM (inactive), the GI50 (A498) was 98.2 µM (inactive) and the GI50 (SK-MEL-5) was > 100 µM (inactive). For the same molecule, the GI50 (TK-10) was > 100 µM (inactive), the GI50 (MOLT-4) was > 100 µM (inactive) and the GI50 (RXF 393) was 48.5 µM (inactive). For the same molecule, the GI50 (Hs-578T) was 10.5 µM (inactive), the GI50 (NCI-H460) was > 100 µM (inactive) and the GI50 (M14) was > 100 µM (inactive). For the same molecule, the GI50 (NCI-H23) was > 100 µM (inactive), the GI50 (T47D) was > 100 µM (inactive) and the GI50 (SF-268) was 21.3 µM (inactive). For the same molecule, the GI50 (SF-539) was 23.4 µM (inactive), the GI50 (HCT-15) was greater than 100 µM and the GI50 (Malme-3M) was > 100 µM (inactive). For the same molecule, the GI50 (EKVX) was 32.5 µM (inactive) and the GI50 (SK-OV-3) was > 100 µM (inactive).
For `Oc1cc(-c2ccc(Cl)cc2)cn2c1nc1ccccc12`, the GI50 (SK-MEL-28) was > 100 µM (inactive), the GI50 (SW-620) was 6.46 µM (inactive) and the GI50 (UO-31) was > 100 µM (inactive). The GI50 (DU-145) was > 100 µM (inactive), the GI50 (MDA-MB-435) was 2.2 µM (inactive) and the GI50 (COLO 205) was > 100 µM (inactive). The GI50 (MCF7) was > 100 µM (inactive), the GI50 (IGROV-1) was 9.55 µM (inactive) and the GI50 (MDA-N) was 2.99 µM (inactive). The GI50 (MDA-MB-231) was > 100 µM (inactive), the GI50 (HL-60) was 2.66 µM (inactive) and the GI50 (CAKI-1) was > 100 µM (inactive). For the same molecule, the GI50 (NCI-H226) was > 100 µM (inactive), the GI50 (KM12) was 5.47 µM (inactive) and the GI50 (K562) was 2.3 µM (inactive). The GI50 (PC-3) was > 100 µM (inactive), the GI50 (NCI/ADR-RES) was > 100 µM (inactive) and the GI50 (SNB-19) was 52.4 µM (inactive). The GI50 (786-0) was 25.8 µM (inactive), the GI50 (LOX IMVI) was 1.88 µM (inactive) and the GI50 (OVCAR-4) was > 100 µM (inactive). The GI50 (SF-295) was > 100 µM (inactive), the GI50 (U-251) was 6.59 µM (inactive) and the GI50 (HOP-92) was > 100 µM (inactive). For the same molecule, the GI50 (UACC-257) was > 100 µM (inactive), the GI50 (HOP-62) was 31.3 µM (inactive) and the GI50 (SNB-75) was 16.1 µM (inactive). The GI50 (OVCAR-3) was > 100 µM (inactive), the GI50 (OVCAR-8) was 17.6 µM (inactive) and the GI50 (NCI-H522) was 2.09 µM (inactive). For the same molecule, the GI50 (UACC-62) was 29.4 µM (inactive), the GI50 (HT-29) was > 100 µM (inactive) and the GI50 (A498) was > 100 µM (inactive). For the same molecule, the GI50 (TK-10) was > 100 µM (inactive), the GI50 (RXF 393) was > 100 µM (inactive) and the GI50 (Hs-578T) was 36.6 µM (inactive). For the same molecule, the GI50 (NCI-H460) was 5.21 µM (inactive), the GI50 (M14) was > 100 µM (inactive) and the GI50 (NCI-H23) was > 100 µM (inactive). For the same molecule, the GI50 (HCT-116) was > 100 µM (inactive), the GI50 (T47D) was > 100 µM (inactive) and the GI50 (SF-268) was > 100 µM (inactive). For the same molecule, the GI50 (SF-539) was > 100 µM (inactive), the GI50 (HCT-15) was greater than 100 µM and the GI50 (Malme-3M) was > 100 µM (inactive). For the same molecule, the GI50 (EKVX) was > 100 µM (inactive), the GI50 (SK-OV-3) was > 100 µM (inactive) and the GI50 (SN12C) was > 100 µM (inactive).
`C#CC(C)(C)Oc1cc(OC)c2c(=O)c3ccccc3n(C)c2c1` was tested, and the GI50 (OVCAR-5) was 31.8 µM (inactive), the GI50 (SK-MEL-28) was 16.2 µM (inactive) and the GI50 (SW-620) was 31.9 µM (inactive). The GI50 (UO-31) was 3.87 µM (inactive), the GI50 (DU-145) was 12.4 µM (inactive) and the GI50 (MDA-MB-435) was 11 µM (inactive). The GI50 (COLO 205) was 14.8 µM (inactive), the GI50 (MCF7) was 20.1 µM (inactive) and the GI50 (IGROV-1) was 0.0238 µM (active). For the same molecule, the GI50 (CCRF-CEM) was 5.27 µM (inactive), the GI50 (RPMI-8226) was 4.4 µM (inactive) and the GI50 (MDA-N) was 12.6 µM (inactive). For the same molecule, the GI50 (MDA-MB-231) was 15.2 µM (inactive), the GI50 (HL-60) was 10.9 µM (inactive) and the GI50 (NCI-H226) was 16.6 µM (inactive). For the same molecule, the GI50 (KM12) was 10.9 µM (inactive), the GI50 (K562) was 10.7 µM (inactive) and the GI50 (PC-3) was 13.8 µM (inactive). The GI50 (NCI/ADR-RES) was 13.8 µM (inactive), the GI50 (SNB-19) was 14.7 µM (inactive) and the GI50 (786-0) was 7.46 µM (inactive). The GI50 (SK-MEL-2) was 16.3 µM (inactive), the GI50 (OVCAR-4) was 7.8 µM (inactive) and the GI50 (A549) was 9.86 µM (inactive). The GI50 (SF-295) was 19.5 µM (inactive), the GI50 (U-251) was 30.3 µM (inactive) and the GI50 (HCC 2998) was 30.7 µM (inactive). For the same molecule, the GI50 (UACC-257) was 10.9 µM (inactive), the GI50 (HOP-62) was 27 µM (inactive) and the GI50 (ACHN) was 12.7 µM (inactive). For the same molecule, the GI50 (SNB-75) was 24.8 µM (inactive), the GI50 (SR) was 2.83 µM (inactive) and the GI50 (OVCAR-8) was 15.4 µM (inactive). The GI50 (UACC-62) was 7.59 µM (inactive), the GI50 (HT-29) was 4.81 µM (inactive) and the GI50 (SK-MEL-5) was 11.1 µM (inactive). The GI50 (TK-10) was 23.6 µM (inactive), the GI50 (MOLT-4) was 3.85 µM (inactive) and the GI50 (RXF 393) was 25.2 µM (inactive). For the same molecule, the GI50 (Hs-578T) was 17.5 µM (inactive), the GI50 (NCI-H460) was 13.5 µM (inactive) and the GI50 (HCT-116) was 17.4 µM (inactive). The GI50 (T47D) was 2.84 µM (inactive), the GI50 (SF-268) was 11.6 µM (inactive) and the GI50 (SF-539) was 26.1 µM (inactive). The GI50 (HCT-15) was 10.9 µM, the GI50 (EKVX) was 20.9 µM (inactive) and the GI50 (SK-OV-3) was 23 µM (inactive). For the same molecule, the GI50 (SN12C) was 10 µM (inactive).
